Data: patent publication US20130236441A1, “METHODS OF TREATING AND PREVENTING THROMBOTIC DISEASES USING ASK1 INHIBITORS” (University of Delaware, priority 2010, published 2013)

Experiments:
[1] = system: ASK1; test: ASK1 T838 phosphorylation in thrombin-stimulated washed human platelets (Western blot); format: cell-based; conditions: thrombin 0.05 U-1 U/ml
Protocol: Washed human platelets (2×10^8) were stimulated with thrombin (1 U/ml) for various time periods as indicated, and the lysates were Western blotted using phospho-specific antibodies against (A) ASK1, (B) MKK3 and P38, and (C) MKK4, and reprobed with corresponding antibodies against total proteins (Cell Signaling Technology, Inc.) to ensure relatively equal loading of ASK1, MKK3, P38 or MKK4 protein in each of its respective lanes.
A study was carried out to determine whether ASK1 was activated during agonist-induced platelet stimulation. A well-characterized antibody specific to the phosphorylated threonine 838 (T838) of ASK1 was used. […] Upon stimulation with as low as 0.05 U-1 U/ml of thrombin, ASK1 was activated rapidly and transiently as evidenced by phosphorylation of T838 (FIG. 3A). In a low percentage SDS-PAGE, ASK1 appeared as a doublet.

[2] = system: WT or Ask1−/− mouse platelets; test: 14C-serotonin release (dense granule secretion) from agonist-stimulated mouse platelets; format: cell-based; conditions: aspirin pretreatment
Protocol: (A) ^14C-serotonin-labeled platelets (2.5×10^8 per ml) from Ask1^+/+ and Ask1^−/− mice were stimulated with various concentration of thrombin for 5 min, and the ^14C-serotonin release was determined using a liquid scintillation counter. (B) Platelets from Ask1^+/+ and Ask1^−/− mice were stimulated with various concentrations of thrombin for 5 min and P-selectin exposure on the platelet surface was determined using flow cytometry. Granular secretion was assessed using WT or Ask1−/− mouse platelets in response to low and high dose of agonists such as thrombin (FIG. 7A) and thrombin/PAR4-peptide (AYPGKF) (FIG. 7B). Dense granule secretion was analyzed by measuring ^14C-serotonin release (FIG. 7A). α-granule secretion was assessed by P-selectin exposure using flow cytometry (FIG. 7B). Ask1 regulated a significant portion of dense granule secretion induced by high dose of thrombin (FIG. 7A). Similar results were obtained when P-selectin exposure was assessed as a measure of α-granule secretion (FIG. 7B).

thrombin
ASK1 activation (phosphorylation of T838) [1]: dose-dependently activated

CC(=O)Oc1ccccc1C(=O)O [aspirin]
amount of serotonin released ([2]; Ask1−/− platelets): no effect
amount of serotonin released ([2]; WT platelets): reduced the amount of serotonin released to that of Ask1−/− platelets
